# Columns and labels:
# P. aerug = assay: antibiotic activity (MIC); format: cell-based
# [1] = tested on: stage 59-60 Xenopus tadpoles; settings: for tadpole response similar to FX 3 / tadpole response similar to compound 1436 / tadpole response similar to compound 1437 / tadpole response similar to Fraction 1: tadpole assay
# [2] = tested on: chick embryo vitelline capillaries; assay: chick embryo vitelline capillary regression assay; format: in vivo; design: key to vitelline capillary regression: +: Vascular reactivity; 0: No vascular reactivity; +/-: Equivocal reactivity; settings: for vitelline capillary regression: 60 minutes
# Protocol: Using the chick embryo vitelline capillaries assay, compounds were tested for their ability to induce capillary regression. Each compound was applied in 0.1 ml of 15% Ficol 400 and PBS onto the embryo, and vascular regression was assessed after 60 minutes.
# The 3-day chick embryo consists of an embryonic disc from which numerous vessels emerge and return, forming a "figure 8"-shaped structure--the embryo in the center with vascular loops extending outward over both poles. […] Following a lag period of around 15 minutes, the constriction of continuity between capillary and secondary vessels, generally on the "venous" side, was observed. Continued pulsatile blood flow progressed, resulting in a "swelling" of the blind tube, followed by a pinching off of the remaining connection and formation of an enclosed vascular sac resembling a "blood island." This process progressed until only the largest vessels remained intact.
structure (smiles),measurement,setting,value
CC(C)CCC[C@@H](C)[C@H]1CC[C@H]2[C@@H]3CC[C@H]4C[C@H](NCCCCN)CC[C@]4(C)[C@H]3CC[C@]12C,MIC,P. aerug,> 256 µg/mL
CC(C)CCC[C@@H](C)[C@H]1CC[C@H]2[C@@H]3CC[C@H]4C[C@@H](NCCCCN)CC[C@]4(C)[C@H]3CC[C@]12C,MIC,P. aerug,> 256 µg/mL
CC(COS(=O)(=O)O)C(=O)CC[C@@H](C)[C@H]1CC[C@H]2[C@@H]3[C@H](O)C[C@H]4C[C@@H](NCCCNCCCCN)CC[C@]4(C)[C@H]3CC[C@]12C (some centres unmarked),MIC,P. aerug,128 µg/mL
CC(C)CCCC(C)[C@H]1CCC2C3C(CC[C@@]21C)[C@@]1(C)CC[C@H](N)C[C@@H]1C[C@H]3O (some centres unmarked),MIC,P. aerug,> 256 µg/mL
CC(C)CCCC(C)[C@H]1CCC2C3C(CC[C@@]21C)[C@@]1(C)CC[C@@H](NCCCNCCCCN)C[C@@H]1C[C@H]3O (some centres unmarked),MIC,P. aerug,64 µg/mL
CC(C)CCCC(C)[C@H]1CCC2C3C(CC[C@@]21C)[C@@]1(C)CC[C@H](NCCCNCCCCN)C[C@@H]1C[C@H]3O (some centres unmarked),MIC,P. aerug,64 µg/mL
COC(=O)CCC(C)[C@H]1CCC2C3C(CC[C@@]21C)[C@@]1(C)CC[C@H](NCCN)C[C@H]1C[C@H]3O (some centres unmarked),MIC,P. aerug,128 µg/mL
COC(=O)CCC(C)[C@H]1CCC2C3C(CC[C@@]21C)[C@@]1(C)CC[C@H](NCCCNCCCCNCCCN)C[C@H]1C[C@H]3O (some centres unmarked),MIC,P. aerug,64 µg/mL
CC(CCC(=O)O)[C@H]1CCC2C3C(CC[C@@]21C)[C@@]1(C)CC[C@@H](NCCCNCCCCNCCCN)C[C@H]1C[C@H]3O (some centres unmarked),MIC,P. aerug,8 µg/mL
CC(CCC(=O)O)[C@H]1CCC2C3C(CC[C@@]21C)[C@@]1(C)CC[C@@H](NCCN)C[C@H]1C[C@H]3O (some centres unmarked),MIC,P. aerug,64 µg/mL
CC(CCC(=O)O)[C@H]1CCC2C3C(CC[C@@]21C)[C@@]1(C)CC[C@H](NCCN)C[C@H]1C[C@H]3O (some centres unmarked),MIC,P. aerug,256 µg/mL
COC(=O)CCC(C)[C@H]1CCC2C3CC[C@@H]4C[C@H](NCCN)CC[C@]4(C)C3C[C@H](O)[C@@]21C (some centres unmarked),MIC,P. aerug,16 to 32 µg/mL
CC(CCC(=O)O)[C@H]1CCC2C3CC[C@@H]4C[C@H](NCCN)CC[C@]4(C)C3C[C@H](O)[C@@]21C (some centres unmarked),MIC,P. aerug,128 µg/mL
COC(=O)CCC(C)[C@H]1CCC2C3C[C@@H](O)[C@H]4C[C@@H](NCCN)CC[C@]4(C)C3CC[C@@]21C (some centres unmarked),MIC,P. aerug,64 µg/mL
CC(CCC(=O)O)[C@H]1CCC2C3C[C@@H](O)[C@H]4C[C@@H](NCCN)CC[C@]4(C)C3CC[C@@]21C (some centres unmarked),MIC,P. aerug,128 µg/mL
COC(=O)CCC(C)[C@H]1CCC2C3CC[C@@H]4C[C@H](NCCCNCCCCNCCCN)CC[C@]4(C)C3C[C@H](O)[C@@]21C (some centres unmarked),MIC,P. aerug,8 µg/mL
CC(CCC(=O)O)[C@H]1CCC2C3CC[C@@H]4C[C@H](NCCCNCCCCNCCCN)CC[C@]4(C)C3C[C@H](O)[C@@]21C (some centres unmarked),MIC,P. aerug,4 µg/mL
COC(=O)CCC(C)[C@H]1CCC2C3CC[C@H]4C[C@@H](NCCCNCCCCNCCCN)CC[C@]4(C)C3CC[C@@]21C (some centres unmarked),MIC,P. aerug,64 µg/mL
CC(C)C(CCC(C)C1CCC2C3C(O)CC4CC(NCCCNCCCCN)CCC4(C)C3CCC12C)OS(=O)(=O)O (centres unmarked),Tadpole: GI (gastrointestinal),[1]; 10 μg/mL,-
same,Tadpole: M (melanocytes),[1]; 10 μg/mL,-
same,Tadpole: Mus (muscle),[1]; 10 μg/mL,-
same,Tadpole: V (vascular),[1]; 10 μg/mL,+
CC(C)C(CCC(C)C1CCC2C3C(O)CC4CC(NCCCNCCCCNCCCN)CCC4(C)C3CCC12C)OS(=O)(=O)O (centres unmarked),Tadpole: E (epithelial),[1]; 10 μg/mL,±
same,Tadpole: M (melanocytes),[1]; 10 μg/mL,+
same,Tadpole: Mus (muscle),[1]; 10 μg/mL,-
same,Tadpole: V (vascular),[1]; 10 μg/mL,+
CC(C)CCC[C@@H](C)[C@H]1CC[C@H]2[C@@H]3CC[C@H]4C[C@@H](NCCCNCCCCN)CC[C@]4(C)[C@H]3CC[C@]12C [Compound 303],vitelline capillary regression,[2]; 1 μg applied,0
C[C@H](CCC(=O)O)[C@H]1CC[C@H]2[C@@H]3CC[C@H]4C[C@H](NCCCNCCCCN)CC[C@]4(C)[C@H]3CC[C@]12C [Compound 318],vitelline capillary regression,[2]; 1 μg applied,0
CC(C)CCC[C@@H](C)[C@H]1CC[C@H]2[C@@H]3[C@H](O)C[C@H]4C[C@H](NCCCNCCCCN)CC[C@]4(C)[C@H]3CC[C@]12C [Compound 370],tadpole response similar to FX 3,[1],exhibiting pharmacologic activity similar to that seen for FX 3
CC(C)CCC[C@@H](C)[C@H]1CC[C@H]2[C@@H]3[C@H](O)C[C@H]4C[C@@H](NCCCNCCCCN)CC[C@]4(C)[C@H]3CC[C@]12C [Compound 371],tadpole response similar to compound 1436,[1],produce effects like those produced by compound 1436
same,vitelline capillary regression,[2]; 0.001 μg applied,0
same,vitelline capillary regression,[2]; 0.01 μg applied,0
same,vitelline capillary regression,[2]; 0.1 μg applied,0
same,vitelline capillary regression,[2]; 1 μg applied,+/-
same,vitelline capillary regression,[2]; 10 μg applied,+
C[C@H](CCC(=O)O)[C@H]1CC[C@H]2[C@@H]3[C@H](O)C[C@H]4C[C@@H](NCCCNCCCCN)CC[C@]4(C)[C@H]3CC[C@]12C [Compound 381],vitelline capillary regression,[2]; 1 μg applied,0
C[C@H](CCC(=O)O)[C@H]1CC[C@H]2[C@@H]3[C@H](O)C[C@H]4C[C@H](NCCCNCCCCN)CC[C@]4(C)[C@H]3CC[C@]12C [Compound 382],vitelline capillary regression,[2]; 0.001 μg applied,0
same,vitelline capillary regression,[2]; 0.01 μg applied,0
same,vitelline capillary regression,[2]; 0.1 μg applied,0
same,vitelline capillary regression,[2]; 1 μg applied,+
same,vitelline capillary regression,[2]; 10 μg applied,+
COC(=O)CC[C@@H](C)[C@H]1CC[C@H]2[C@@H]3[C@H](O)C[C@H]4C[C@@H](NCCCNCCCCNCCCN)CC[C@]4(C)[C@H]3CC[C@]12C [Compound 396],vitelline capillary regression,[2]; 1 μg applied,+
COC(=O)CC[C@@H](C)[C@H]1CC[C@H]2[C@@H]3[C@H](O)C[C@@H]4C[C@@H](NCCN)CC[C@]4(C)[C@H]3CC[C@]12C [Compound 409],tadpole response similar to compound 1437,[1],functionally similar to compound 1437
same,vitelline capillary regression,[2]; 1 μg applied,0
COC(=O)CC[C@@H](C)[C@H]1CC[C@H]2[C@@H]3[C@H](O)C[C@@H]4C[C@H](NCCN)CC[C@]4(C)[C@H]3CC[C@]12C [Compound 410],tadpole response similar to compound 1437,[1],functionally similar to compound 1437
same,vitelline capillary regression,[2]; 0.001 μg applied,0
same,vitelline capillary regression,[2]; 0.01 μg applied,+/-
same,vitelline capillary regression,[2]; 0.1 μg applied,+/-
same,vitelline capillary regression,[2]; 1 μg applied,+
C[C@H](CCC(=O)O)[C@H]1CC[C@H]2[C@@H]3[C@H](O)C[C@@H]4C[C@H](NCCCNCCCCNCCCN)CC[C@]4(C)[C@H]3CC[C@]12C [Compound 412],tadpole response similar to FX 3,[1],exhibiting pharmacologic activity similar to that seen for FX 3
same,vitelline capillary regression,[2]; 0.001 μg applied,0
same,vitelline capillary regression,[2]; 0.01 μg applied,0
same,vitelline capillary regression,[2]; 0.1 μg applied,0
same,vitelline capillary regression,[2]; 1 μg applied,+
C[C@H](CCC(=O)O)[C@H]1CC[C@H]2[C@@H]3[C@H](O)C[C@@H]4C[C@@H](NCCCNCCCCNCCCN)CC[C@]4(C)[C@H]3CC[C@]12C [Compound 413],tadpole response similar to compound 1436,[1],produce effects like those produced by compound 1436
same,vitelline capillary regression,[2]; 1 μg applied,0
C[C@H](CCC(=O)O)[C@H]1CC[C@H]2[C@@H]3[C@H](O)C[C@@H]4C[C@H](NCCN)CC[C@]4(C)[C@H]3CC[C@]12C [Compound 414],tadpole response similar to Fraction 1,[1],pharmacologic activity similar to Fraction 1
same,vitelline capillary regression,[2]; 1 μg applied,0
C[C@H](CCC(=O)O)[C@H]1CC[C@H]2[C@@H]3[C@H](O)C[C@@H]4C[C@@H](NCCN)CC[C@]4(C)[C@H]3CC[C@]12C [Compound 415],vitelline capillary regression,[2]; 0.001 μg applied,0
same,vitelline capillary regression,[2]; 0.01 μg applied,+
same,vitelline capillary regression,[2]; 0.1 μg applied,+
same,vitelline capillary regression,[2]; 1 μg applied,+
same,activity in vitelline capillary regression assay (in words),[2]; in vivo,especially active
COC(=O)CC[C@@H](C)[C@H]1CC[C@H]2[C@@H]3CC[C@@H]4C[C@H](NCCN)CC[C@]4(C)[C@H]3C[C@H](O)[C@]12C [Compound 416],tadpole response similar to compound 1437,[1],functionally similar to compound 1437
COC(=O)CC[C@@H](C)[C@H]1CC[C@H]2[C@@H]3C[C@@H](O)[C@H]4C[C@H](NCCN)CC[C@]4(C)[C@H]3CC[C@]12C [Compound 431],tadpole response similar to compound 1437,[1],functionally similar to compound 1437
COC(=O)CC[C@@H](C)[C@H]1CC[C@H]2[C@@H]3C[C@@H](O)[C@H]4C[C@@H](NCCN)CC[C@]4(C)[C@H]3CC[C@]12C [Compound 432],tadpole response similar to compound 1437,[1],functionally similar to compound 1437
C[C@H](CCC(=O)O)[C@H]1CC[C@H]2[C@@H]3C[C@@H](O)[C@H]4C[C@@H](NCCN)CC[C@]4(C)[C@H]3CC[C@]12C [Compound 433],tadpole response similar to compound 1437,[1],functionally similar to compound 1437
COC(=O)CC[C@@H](C)[C@H]1CC[C@H]2[C@@H]3CC[C@H]4C[C@H](NCCCNCCCCNCCCN)CC[C@]4(C)[C@H]3CC[C@]12C [Compound 458],tadpole response similar to FX 3,[1],exhibiting pharmacologic activity similar to that seen for FX 3
COC(=O)CC[C@@H](C)[C@H]1CC[C@H]2[C@@H]3CC[C@H]4C[C@@H](NCCCNCCCCNCCCN)CC[C@]4(C)[C@H]3CC[C@]12C [Compound 459],tadpole response similar to FX 3,[1],exhibiting pharmacologic activity similar to that seen for FX 3
COC(=O)CC[C@@H](C)[C@H]1CC[C@H]2[C@@H]3C[C@@H](O)[C@H]4C[C@H](NCCCNCCCCNCCCN)CC[C@]4(C)[C@H]3CC[C@]12C [Compound 465],tadpole response similar to FX 3,[1],exhibiting pharmacologic activity similar to that seen for FX 3
COC(=O)CC[C@@H](C)[C@H]1CC[C@H]2[C@@H]3C[C@@H](O)[C@H]4C[C@@H](NCCCNCCCCNCCCN)CC[C@]4(C)[C@H]3CC[C@]12C [Compound 466],tadpole response similar to FX 3,[1],exhibiting pharmacologic activity similar to that seen for FX 3
CC(C)CCC[C@@H](C)[C@H]1CC[C@H]2[C@@H]3[C@H](O)C[C@H]4C[C@H](N)CC[C@]4(C)[C@H]3CC[C@]12C [Compound 1363],tadpole response similar to Fraction 1,[1],pharmacologic activity similar to Fraction 1
CC(C)CCC[C@@H](C)[C@H]1CC[C@H]2[C@@H]3[C@H](O)C[C@H]4C[C@@H](N)CC[C@]4(C)[C@H]3CC[C@]12C [Compound 1364],vitelline capillary regression,[2]; 0.001 μg applied,0
same,vitelline capillary regression,[2]; 0.01 μg applied,0
same,vitelline capillary regression,[2]; 0.1 μg applied,0
same,vitelline capillary regression,[2]; 1 μg applied,+
same,vitelline capillary regression,[2]; 10 μg applied,+

# Reference: patent publication US5795885A, “Method of inhibiting profileration of cells by administering an aminosterol compound” (priority 1995, dated 1998)
